# Experimental data from patent publication US20080207673A1, “Method for Treating Cancer, Coronary, Inflammatory and Macular Disease, Combining the Modulation of Zinc-and/or Copper Dependent Proteins” (priority 2005, published 2008).
# Tests used:
# [1] = test system: HCV RNA Replicons; assay: HCV RNA replicon antiviral activity testing (luciferase); assay type: cell-based, Hepatitis C virus; settings: for inhibition at 20 µM: Hepatitis C virus, 20 micromolar, read-out: Antiviral Activity (luciferase, percent inhibition of virus control)
# [2] = test system: Huh7 ET; assay: Cytotoxicity in the HCV replicon cell line (actively dividing cells); assay type: cell-based; settings: single high test concentration, 20 micromolar
# Description: The cell line used was Huh7 ET.
# [3] = cited from earlier work
# [4] = target: T1, MMP-2 (Homo sapiens, UniProt P08253); assay: MMP enzyme assay, fluorometric; assay type: biochemical
# T1 sequence (P08253 110-660): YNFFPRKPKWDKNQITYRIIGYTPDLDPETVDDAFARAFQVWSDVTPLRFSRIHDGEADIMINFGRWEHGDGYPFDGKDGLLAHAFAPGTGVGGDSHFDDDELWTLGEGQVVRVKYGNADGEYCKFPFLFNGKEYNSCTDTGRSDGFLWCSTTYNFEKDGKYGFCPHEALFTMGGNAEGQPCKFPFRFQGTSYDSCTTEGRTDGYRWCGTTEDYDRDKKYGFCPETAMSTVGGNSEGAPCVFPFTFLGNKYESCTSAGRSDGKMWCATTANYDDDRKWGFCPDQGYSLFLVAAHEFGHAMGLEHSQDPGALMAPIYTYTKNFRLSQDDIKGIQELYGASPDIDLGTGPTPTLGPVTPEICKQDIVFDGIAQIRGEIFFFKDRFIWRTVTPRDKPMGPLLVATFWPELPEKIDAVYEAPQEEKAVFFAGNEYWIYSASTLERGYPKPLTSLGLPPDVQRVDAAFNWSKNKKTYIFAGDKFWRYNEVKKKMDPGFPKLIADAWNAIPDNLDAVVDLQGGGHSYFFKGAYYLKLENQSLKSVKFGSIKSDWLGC
# Description: (§1) An enzyme assay was conducted with five of the enzymes belonging to the MMP group. Specifically, the assay was conducted for MMP-1, MMP-2, MMP-3, MMP-7, and MMP-9 at various concentrations.
# (§2) A test substrate of Mca-Pro-Leu-Gly-Leu-Dpa-Ala-Arg-NH2 was subsequently added to obtain a concentration of 25 μM. MMP-1 was incubated for 2 hours at 37EC, MMP-2 was incubated for 3 hours at 25EC, MMP-3 was incubated for 90 min at 37EC. MMP-7 was incubated for 90 min at 37EC, and MMP-9 was incubated for 2 hours at 25 degrees Celsius. The activity of the enzymes was measured by fluorometric quantisation of Mca-Pro-Leu-Gly-OH.
# [5] = target: T2, MMP-1 (Homo sapiens, UniProt P03956); assay: MMP enzyme assay, fluorometric; assay type: biochemical
# T2 sequence (P03956 100-469): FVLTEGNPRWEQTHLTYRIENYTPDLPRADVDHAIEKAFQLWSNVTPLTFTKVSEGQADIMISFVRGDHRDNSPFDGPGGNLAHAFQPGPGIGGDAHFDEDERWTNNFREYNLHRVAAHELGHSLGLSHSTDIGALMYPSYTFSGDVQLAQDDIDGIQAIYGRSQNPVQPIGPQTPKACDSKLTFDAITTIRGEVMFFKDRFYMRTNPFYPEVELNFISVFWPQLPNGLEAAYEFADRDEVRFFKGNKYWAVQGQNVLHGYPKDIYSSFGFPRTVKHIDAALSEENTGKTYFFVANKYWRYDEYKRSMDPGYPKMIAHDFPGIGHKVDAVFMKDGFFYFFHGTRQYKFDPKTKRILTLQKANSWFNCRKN
# Description: as §1, §2
# [6] = target: MMP-9 (Homo sapiens, UniProt P14780); assay: MMP enzyme assay, fluorometric; assay type: biochemical
# MMP-9, sequence (P14780 94-707, species assumed): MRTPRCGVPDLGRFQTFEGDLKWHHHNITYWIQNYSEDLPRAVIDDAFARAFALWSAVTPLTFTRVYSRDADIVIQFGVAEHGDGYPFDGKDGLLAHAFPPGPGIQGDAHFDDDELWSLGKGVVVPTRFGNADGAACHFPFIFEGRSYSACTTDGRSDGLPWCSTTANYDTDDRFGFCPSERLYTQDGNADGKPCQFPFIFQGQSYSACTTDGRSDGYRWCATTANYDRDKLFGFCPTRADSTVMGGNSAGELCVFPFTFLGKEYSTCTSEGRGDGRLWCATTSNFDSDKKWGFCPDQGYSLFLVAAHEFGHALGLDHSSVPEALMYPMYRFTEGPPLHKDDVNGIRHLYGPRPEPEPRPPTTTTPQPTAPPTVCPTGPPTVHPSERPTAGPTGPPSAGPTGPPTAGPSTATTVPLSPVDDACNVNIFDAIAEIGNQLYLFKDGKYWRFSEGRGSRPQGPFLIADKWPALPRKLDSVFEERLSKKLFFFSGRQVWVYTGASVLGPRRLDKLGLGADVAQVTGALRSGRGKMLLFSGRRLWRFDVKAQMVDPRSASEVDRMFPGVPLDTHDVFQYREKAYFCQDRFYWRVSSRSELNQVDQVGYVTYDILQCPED
# Description: as §1, §2
# [7] = target: T3, MMP-7 (Homo sapiens, UniProt P09237); assay: MMP enzyme assay, fluorometric; assay type: biochemical
# T3 sequence (P09237 95-267): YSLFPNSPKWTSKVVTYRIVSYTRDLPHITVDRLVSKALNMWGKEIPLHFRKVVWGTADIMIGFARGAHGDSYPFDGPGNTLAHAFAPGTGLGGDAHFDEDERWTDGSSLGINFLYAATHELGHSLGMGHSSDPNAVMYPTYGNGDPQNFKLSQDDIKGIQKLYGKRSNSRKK
# Description: as §1, §2
# [8] = target: MMP-3 (Homo sapiens, UniProt P08254); assay: MMP enzyme assay, fluorometric; assay type: biochemical
# MMP-3, sequence (P08254 100-477, species assumed): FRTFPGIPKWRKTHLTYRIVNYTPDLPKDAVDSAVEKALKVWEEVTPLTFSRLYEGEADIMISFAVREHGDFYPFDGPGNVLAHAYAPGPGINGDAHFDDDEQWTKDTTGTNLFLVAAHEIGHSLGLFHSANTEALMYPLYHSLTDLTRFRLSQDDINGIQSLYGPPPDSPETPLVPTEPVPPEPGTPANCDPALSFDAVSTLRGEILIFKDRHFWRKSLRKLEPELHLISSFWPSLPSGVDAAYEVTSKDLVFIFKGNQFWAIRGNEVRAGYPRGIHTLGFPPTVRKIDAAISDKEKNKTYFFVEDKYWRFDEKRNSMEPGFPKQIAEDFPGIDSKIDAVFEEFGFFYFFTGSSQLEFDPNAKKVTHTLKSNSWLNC
# Description: as §1, §2
# [9] = target: T4, Aβ (1-40) (Homo sapiens, UniProt P05067); assay: Thioflavin T fluorometric assay of metal-ion induced Aβ aggregation; assay type: biochemical; settings: test compound 10 μg/ml, 24 hours
# T4 construct: A 5 mg/ml stock solution of Aβ (1-40) (delivered from Bachem (CH)); purchased Bachem (CH)
# T4 sequence (P05067 672-711 limits assumed): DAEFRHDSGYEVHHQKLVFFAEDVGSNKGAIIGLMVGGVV
# Description: A 5 mg/ml stock solution of Aβ (1-40) (delivered from Bachem (CH)) was freshly prepared before each experiment by dissolving the lyophilized peptide in 0.01 M HCl, followed by subsequent dilution 1.1 with 0.01 M NaOH to yield a neutral pH. Aliquot of Aβ (1-40) were diluted in PBS (pH 7.4) to 100 [mu]M and incubated at a total volume of 30 μ/l for 24 hours at room temperature. For co-incubation experiments, the indicated concentrations of metal ions and/or aliquot of test compounds were added. The test compounds were added to a final molar concentration of 10 μg/ml.
# The amyloid formation was quantified by a thioflavin T fluorometric assay. Thioflavin binds specifically to amyloid and this introduces a shift in its emission spectrum and a fluorescent signal proportional to the amount of amyloid is formed. After incubation, Aβ (1-40) peptides were added to PBS (pH 6.0) and 3 μM thioflavin T in a final volume of 1 ml. Fluorescence was monitored at excitation 454 nm and emission 482 nm using a Fluoroscan II fluorometer (Molecular devices, UK). A time scan of fluorescence was performed and three values after the decay reached a plateau (around 5 minutes) were averaged after subtracting the background fluorescence of 3 μM thioflavin T. For co-incubation experiments, fluorescence of test compound alone was determined. Samples were run in triplicate.
# It was studied whether the two compounds had any effect on metal-ion catalysed Aβ aggregation, especially the aggregation caused by Zn and Cu.
# [10] = test system: hepatitis B (HBV); assay: NIH hepatitis B screening; assay type: cell-based, hepatitis B virus; settings: negative because of cytotoxicity of the cell line used
# Description: The HBV research is run by the University of Georgetown (Dr. Brent Korba). The results with HBV were negative at this point because of cytotoxicity of the cell line used.
# [11] = brain; cited from earlier work
# [12] = test system: PC12 cells; assay: MTT reduction, Aβ (25-35) induced toxicity in PC12 cells; assay type: cell-based, Rat; settings: 10 μg phanquinone per ml
# Description: Aβ (25-35) was delivered by Bachem (CH) or Sigma (USA) and dissolved in phosphate buffered saline (PBS) at pH 7, 4, 2 hours prior to application.
# Rat PC12 pheochromocytoma cells were grown in Dulbecco's modified Eagle's medium (DMEM) containing 1% penicillin-streptomycin, 5% fetal calf serum and 10% horse serum in humidified incubator with 5% CO2.
# PC12 cells were plated on 96-wells microtiter plates in 100 μl of the appropriate medium. After 24 hours the indicated concentrations of Aβ (25-35) peptide was added alone or together with phanquinone in the designated concentrations. Incubation continued for 24 hours. Following incubation, MTT reduction was measured using a commercially available assay according to the manufacturer's (Boehringer Mannheim) instructions. Assay values obtained by vehicle alone were defined as 100%.
# MTT is a substrate for intracellular and plasma membrane oxidoreductases and has been widely used to measure reductions of cell redox activity.
# To test the effect of phanquinone on Aβ (25-35) induced toxicity in PC12 cells, PC12 cells were exposed to Aβ (25-35) peptide concentrations ranging from 0 to 10 μM. In the absence of phanquinone (i.e. only vehicle added) Aβ (25-35) produced a dose-dependent inhibition of MTT reduction. […]
# [13] = cited from earlier work; remark: listed apart in the source
# [14] = single high test concentration, Huh7 ET
structure (smiles),measurement,setting,value
"Oc1c(I)cc(Cl)c2cccnc12 [Clioquinol, 5-chloro-7-iodo-8-hydroxyquinoline]",inhibition at 20 µM,[1]; [14],82.3%
same,selectivity index S150,[1]; retesting dose response,over 4.8
same,selectivity index S190,[1]; retesting dose response,14
same,Comments (screening verdict),[1]; [14],Potentially active
same,"Cytotoxicity (actively dividing cells, percent cell control)",[2],73.3%
same,solubility in water,[3],Practically insoluble in water
same,inhibition at 100 µM,[4],28%
same,inhibition at 1000 µM,[4],26%
same,inhibition at 10000 µM,[4],101%
same,inhibition at 100 µM,[5],12%
same,inhibition at 100 µM,[6],19%
same,inhibition at 100 µM,[7],20%
same,inhibition at 100 µM,[8],7%
same,reduction of Cu-induced aggregation of Aβ (1-40),[9],approximately 30%
same,reduction of Zn-induced aggregation of Aβ (1-40),[9],more than 60%
same,results with HBV,[10],negative
"O=C1C(=O)c2ncccc2-c2cccnc21 [Phanquinone, 4,7-phenanthroline-5,6-dione]",ability of copper chelation compared to clioquinol,[11],three times more pronounced
same,inhibition at 20 µM,[1]; [14],83.2%
same,activity against HCV RNA replicons,"[1]; retest with dose response curve, Huh7 ET",no activity
same,Comments (screening verdict),[1]; [14],Toxic
same,Selectivity Index,[1]; [14],<1
same,"Cytotoxicity (actively dividing cells, percent cell control)",[2],10.5%
same,inhibition of MTT reduction by Aβ (25-35),"[12]; Aβ 10 μM, 24 hours",around 10%
same,effect on the toxic effect of Aβ (25-35),[12]; Aβ as high as 1 μM,completely counteracted
same,adverse effect on the nervous system,[13]; in vivo,no evidence
same,"deaths, fetal malformations, drug interactions or carcinogenicity related to treatment",[13]; in vivo,no reports
same,tolerability,[13]; most often 200-400 mg/day for 7 to 10 days,well tolerated
same,reduction of Cu-induced aggregation of Aβ (1-40),[9],50-60%
same,reduction of Zn-induced aggregation of Aβ (1-40),[9],approximately 10%
same,results with HBV,[10],negative
